Measured values from paper PMC2409616 (British Journal of Cancer, 2004).
Several values for one entry are separate records, joined by “and”; a condition that tells them apart may be missing. Identical values can stand only once. Like-named read-outs stand apart in the source and are kept apart here.

What was measured:
UV4 [1] = system: UV4
SiHa = test: cells; conditions: Homo sapiens, 4 h, read-out: IC50 following 4 h drug exposure
WiDr = test: cells; conditions: Homo sapiens, 4 h, read-out: IC50 following 4 h drug exposure
V79^puro = test: cells; conditions: Cricetulus griseus, 4 h, read-out: IC50 following 4 h drug exposure
AA8 = test: cells; conditions: Cricetulus griseus, CHO-AA8, 4 h, read-out: IC50 following 4 h drug exposure
UV4 [2] = test: cells; conditions: Cricetulus griseus, UV4, 4 h, read-out: IC50 following 4 h drug exposure
SiHa MCLs = test: Transport through multicellular layers (two-chamber diffusion apparatus); conditions: 100 μM in donor compartment
SiHa cells = test: Metabolic consumption of prodrug in stirred single-cell suspensions (loss from extracellular medium); conditions: corrected to 10^6 cells ml^−1, mean±s.e.m., 2–3 cell suspensions
SiHa-NTR^puro cells = test: as above; conditions: corrected to 10^6 cells ml^−1, mean±s.e.m., 2–3 cell suspensions

Q: Which “AA8/UV4 intra-experiment IC50 ratio” value (UV4 [1]) does the source give for `NC(=O)c1cc(N2CC2)c(NO)cc1[N+](=O)[O-]` [compound 4, 5-(aziridin-1-yl)-4-hydroxylamino-2-nitrobenzamide] here?
A: 63 and 63±5

Q: What about the “Fold less potent in the four repair competent cell lines than in UV4” value (UV4 [1]) of the same molecule?
A: 11–70 fold

Q: And the “Bioactivity of HPLC fraction against UV4 cells” value (“Bioactivity of HPLC fraction” below) (UV4 cells)?
A: greatest activity

Q: And the “Appearance of metabolite in donor and receiver compartments” value (“Appearance of metabolite” for short) (SiHa-NTR^puro MCLs)?
A: not detected at all in the receiver compartment

Q: And the IC50 (SiHa)?
A: 45 ± 9 µM

Q: What about the IC50 (WiDr) of the same molecule?
A: 26 ± 5 µM

Q: What about the IC50 (V79^puro) of the same molecule?
A: 6.9 ± 0.6 µM

Q: What about the IC50 (AA8) of the same molecule?
A: 39 ± 6 µM

Q: What about the IC50 (UV4 [2]) of the same molecule?
A: 0.62 ± 0.05 µM

Q: And the “Appearance in the receiver compartment in the presence of an MCL vs bare support membrane” value (SiHa MCLs)?
A: greatly reduced

Q: Which “Bioactivity of HPLC fraction” value (UV4 cells) does the source give for `NC(=O)c1cc(N2CC2)c([N+](=O)[O-])cc1N` [compound 3] here?
A: significant cytotoxicity

Q: What about the “Appearance of metabolite” value (SiHa-NTR^puro MCLs) of the same molecule?
A: accumulated in both compartments

Q: And the “Initial flux of metabolite” value (SiHa-NTR^puro MCLs; human)?
A: ~0.2 µM/h

Q: What about the IC50 (SiHa) of the same molecule?
A: 7.9 ± 3.3 µM

Q: And the IC50 (WiDr)?
A: 21 ± 3 µM

Q: What about the IC50 (V79^puro) of the same molecule?
A: 56 ± 7 µM

Q: What about the IC50 (AA8) of the same molecule?
A: 28 ± 8 µM

Q: And the IC50 (UV4 [2])?
A: 3.7 ± 0.7 µM

Q: For `NC(=O)c1cc(N2CC2)c([N+](=O)[O-])cc1[N+](=O)[O-]` [compound 1, 5-(aziridin-1-yl)-2,4-dinitrobenzamide, reference compound], which “First-order rate constant k of metabolic consumption” value (shortened to “First-order rate constant k”) (V79^puro cells (NTR−ve); Chinese hamster) is on record?
A: 0.0010 ± 0.0004 h⁻¹

Q: And the “First-order rate constant k” value (V79-NTR^puro cells; Chinese hamster)?
A: 0.08 ± 0.03 h⁻¹

Q: What about the “Bioactivity of HPLC fraction” value (UV4 cells; extracellular medium of V79-NTR^puro suspensions (5 × 10^6 ml^−1, 3 h) with CB 1954) of the same molecule?
A: weak cytotoxicity

Q: And the IC50 (SiHa)?
A: 277 ± 36 µM

Q: And the IC50 (WiDr)?
A: 485 ± 34 µM

Q: And the IC50 (V79^puro)?
A: 2950 ± 113 µM

Q: And the IC50 (AA8)?
A: 2480 ± 260 µM

Q: And the IC50 (UV4 [2])?
A: 135 ± 28 µM

Q: And the “First-order rate constant k” value (SiHa cells)?
A: 0.0066 ± 0.0001 h⁻¹

Q: And the “First-order rate constant k” value (SiHa-NTR^puro cells)?
A: 0.22 ± 0.06 h⁻¹

Q: `NC(=O)c1cc(N2CC2)c(N)cc1[N+](=O)[O-]` [compound 5] was tested. Which “AA8/UV4 intra-experiment IC50 ratio” value (UV4 [1]) did it give?
A: 1.2±0.1

Q: And the “Bioactivity of HPLC fraction” value (UV4 cells)?
A: significant cytotoxicity

Q: And the “Appearance of metabolite” value (SiHa-NTR^puro MCLs)?
A: accumulated in both compartments

Q: And the IC50 (SiHa)?
A: 163 ± 39 µM

Q: And the IC50 (WiDr)?
A: 141 ± 34 µM

Q: What about the IC50 (V79^puro) of the same molecule?
A: 238 ± 6 µM

Q: What about the IC50 (AA8) of the same molecule?
A: 62 ± 12 µM

Q: And the IC50 (UV4 [2])?
A: 47 ± 5 µM

Q: Which results are given for `NC(=O)c1cc(N2CC2)c([N+](=O)[O-])cc1NO` [compound 2]?
A: AA8/UV4 intra-experiment IC50 ratio (UV4 [1]): 3.4; Bioactivity of HPLC fraction against UV4 cells (UV4 cells): significant cytotoxicity; Appearance of metabolite in donor and receiver compartments (SiHa-NTR^puro MCLs): not detected in either compartment; IC50 (AA8): 22 µM; IC50 (UV4 [2]): 6.3 µM

Q: Which results are given for `NC(=O)c1cc(N(CCCl)CCCl)c([N+](=O)[O-])cc1[N+](=O)[O-]` [compound 7, 5-[N,N-bis(2-chloroethyl)amino]-2,4-dinitrobenzamide]?
A: First-order rate constant k of metabolic consumption (V79^puro cells (NTR−ve); V79^puro, corrected to 10^6 cells ml^−1, mean±s.e.m., 2–3 cell suspensions): 0.0020 ± 0.0001 h⁻¹; First-order rate constant k of metabolic consumption (V79-NTR^puro cells; V79-NTR^puro, corrected to 10^6 cells ml^−1, mean±s.e.m., 2–3 cell suspensions): 0.17 ± 0.003 h⁻¹; AA8/UV4 intra-experiment IC50 ratio (UV4 [1]): ca 1.3; IC50 (SiHa): > 800 µM; IC50 (WiDr): > 1000 µM; IC50 (V79^puro): > 500 µM; IC50 (AA8): ~1000 µM; IC50 (UV4 [2]): 761 ± 89 µM; First-order rate constant k of metabolic consumption (SiHa cells): <0.001 h⁻¹; First-order rate constant k of metabolic consumption (SiHa-NTR^puro cells): 0.6 ± 0.2 h⁻¹

Q: How did the “AA8/UV4 intra-experiment IC50 ratio” value (UV4 [1]) turn out when `NC(=O)c1cc(N(CCCl)CCCl)c([N+](=O)[O-])cc1NO` [compound 8] was run?
A: 51±1

Q: What about the IC50 (SiHa) of the same molecule?
A: 2.07 ± 0.08 µM

Q: What about the IC50 (WiDr) of the same molecule?
A: 1.2 ± 0.1 µM

Q: What about the IC50 (V79^puro) of the same molecule?
A: 1.74 ± 0.23 µM

Q: And the IC50 (AA8)?
A: 2.3 ± 0.1 µM

Q: What about the IC50 (UV4 [2]) of the same molecule?
A: 0.045 ± 0.001 µM
